Assay results: patent US9643933B2, “Compounds useful as antibiotic tolerance inhibitors” (priority 2013, dated 2017)

Assays:
[1] = test system: HHQ; assay: Assay for HHQ Inhibition (6 Hour Incubation); format: cell-based, P. aeruginosa PA14 wild-type strain; conditions: Pseudomonas aeruginosa, PA14, 6 h, read-out: HHQ (6 hr) IC50 (μM)
Description: (§1) A concentration range with 7 test concentrations is chosen for each test compound. Typically concentration ranges for the PQS and HHQ assays are from 0.03 to 31.6 μM. Compounds are prepared in solvent, usually DMSO, at either 200 or 500 times the final test concentration.
(§2) P. aeruginosa PA14 wild-type strain is inoculated into 5 ml LB broth in a 15 ml sterile glass culture tube and incubated overnight at 37° C. under shaking (˜240 rpm). After overnight incubation, the bacterial culture is diluted in fresh LB broth to an OD600 nm=0.04, and 5 mL aliquots of the diluted bacterial culture are distributed into 15-mL glass tubes. 10 μL of test compound at 500 times the final test concentration or 25 μL of test compound at 200 times the final test concentration or solvent alone is added to each of the bacterial suspension tubes, and the tubes are incubated at 37° C. under shaking (300 rpm) for 6 hours. At the end of the incubation period, a 0.5 mL aliquot of bacterial suspension is transferred from each 15 mL glass tube, after shaking, to a 2 mL polypropylene vial. 0.5 mL of methanol-containing D4-PQS (deuterated-PQS), D4-HHQ (deuterated-HHQ) and 2% acetic acid are added to each 2 mL vial and each vial is vigorously shaken. The vials are then centrifuged for 5 minutes at 12,000 g, and 200 μL of supernatant from each vial is transferred to a glass vial (vials crimp 0.2 mL), and the sealed vials are kept at 4° C. until LC-MS/MS analysis is performed. HAQs quantification is carried out analyzing samples in discrete batches together with spiked standards and blank samples. Calibration curves are constructed from HAQs standards, and respective deuterated forms are used as Internal Standards (IS), to calculate the concentration of analytes in the sample and improve the precision of the assay. The back-calculated concentrations of the calibration standards from the calibration curve shall be within ±20% of the nominal values, the range of the analytical method is determined, and the lower and upper limit of quantification specified.
(§3) Liquid chromatography separations are performed using Agilent HP1100 system (Agilent Technologies) coupled with a CTC PAL Autosampler (CTC Analytics AG). Chromatographic retention is obtained using a monolithic column (Chromolith® RP-18, 50×4.6 mm). The solvent system consists of water containing 0.1% (v/v) formic acid (A) and acetonitrile containing 0.1% (v/v) formic acid (B). The gradient elution profile is chosen as follows: 0 min: 70% A (1500 μL/min), 0.3 min: 70% A (1500 μL/min), 1.3 min: 5% A (2500 μL/min), 1.6 min: 5% A (2500 μL/min).
(§4) The MS/MS analysis is performed with a API4000 series mass spectrometer (AB Sciex™) operating in Multiple Reaction Monitoring (MRM) mode and equipped with a TIS ion source. The specific ions monitored are PQS (m/z 260→m/z 175), D4-PQS (m/z 264→m/z 179), HHQ (m/z 244→m/z 159) and D4-HHQ (m/z 248→m/z 163). PQS and HHQ in presence of different test compound concentrations are expressed as percentage of inhibition of the basal level in control samples.

[2] = test system: Pyocyanin; assay: Pyocyanin Inhibition Assay; format: cell-based, P. aeruginosa, strain PA14; conditions: Pseudomonas aeruginosa, PA14, 24 h, read-out: Pyocyanin Inhibition No. IC50 (μM)
Description: Test compounds are dissolved in DMSO at 10 mM and stored at −20° C. until needed. Seven test concentrations from 0.0032 micromolar to 31.6 micromolar are used for each compound.
P. aeruginosa, strain PA14, is inoculated into 5 mL of LB broth in a 15-mL sterile glass culture tube and incubated overnight at 37° C. under shaking (˜240 rpm). The overnight culture is then diluted in LB Broth to give an OD600=0.04 (T0 culture). Colony Forming Units (CFU)/mL of the overnight culture and T0 culture are determined by a series of 1:10 serial dilutions in sterile saline. 4×20 μL of each dilution is seeded on LB agar plates and incubated at 35±2° C. for 20 hours. CFU/mL is determined from the dilution that gives 2 to 50 colonies/20 μL.
For concentration response curve (CRC) experiments, internal standard, 2-((5-nitro-1H-indol-2-yl)thio)-N-(4-phenoxyphenyl)acetamide, a compound previously identified as an MvfR inhibitor (see Example 1 of US 2014-0066454 (WO 2012/116010)), and test compounds are serially diluted in DMSO to 200 times each final concentration (0.5% DMSO fmal), and 1 μL/well is dispensed in duplicate into 2 mL wells of a 96-well deep well plate. 200 μL/well of T0 culture are added to each internal standard/test compound well. Wells containing only T0 culture (200 200 μL/well) are used to determine pyocyanin control level and wells containing only LB broth (blank wells) are also included in the plate.
The plate is sealed and incubated at 37° C. under shaking (˜700 rpm) using a microtiter shaker for 24 hours. At the end of the incubation period, the plate is centrifuged at 4,000 g for 40 minutes at room temperature, 100 μL/well of the supernatant is transferred to a 96-microtiter PS flat-bottom plate, and absorbance at 690 nm is determined using SPECTROstar® Nano microplate reader. Pyocyanin concentration (M) is determined using the equation C=A690/(ε×d), where ε is the Pyocyanin extinction coefficient, at A690 nm ε is 4,310 M^−1 cm^−1 and d is the experimentally derived pathlength. The level of pyocyanin in the presence of test compound is expressed as percentage of inhibition with respect to the control. Curve fitting and IC50 determination were carried out using a four-parameter logistic model using GraphPad Prism v.5.

[3] = test system: PQS; assay: Assay for PQS Inhibition (6 Hour Incubation); format: cell-based, P. aeruginosa PA14 wild-type strain; conditions: Pseudomonas aeruginosa, PA14, 6 h, read-out: PQS (6 hr) IC50 (μM)
Description: as §1, §2, §3, §4

[4] = test system: PQS; assay: PQS Inhibition Assay (24 Hour Incubation); format: cell-based, P. aeruginosa PA14 wild-type strain; conditions: Pseudomonas aeruginosa, PA14, 24 h, read-out: PQS (24 hr) IC50 (μM)
Description: Test compounds are dissolved in DMSO at 10 mM and stored at −20° C. until needed. Seven test concentrations from 0.0032 micromolar to 31.6 micromolar are used for each compound. P. aeruginosa PA14 wild-type strain is inoculated into 5 mL LB broth in a 15-mL sterile glass culture tube and incubated overnight at 37° C. under shaking (˜240 rpm). The overnight culture is then diluted in LB Broth to give an OD600=0.04 (T0 culture). Colony Forming Units (CFU)/mL of the overnight culture and T0 culture are determined by a series of 1:10 serial dilutions in sterile saline. 4×20 μL of each dilution is seeded on LB agar plates and incubated at 35±2° C. for 20 hours. CFU/mL is determined from the dilution that gives 2 to 50 colonies/20 μL.
For concentration response curve (CRC) experiments, internal standard (2-((5-nitro-1H-indol-2-yl)thio)-N-(4-phenoxyphenyl)acetamide)) and test compounds are serially diluted in DMSO to give 200 times of each final concentration (0.5% DMSO final), and 1 μL/well is dispensed in duplicate into 2-mL wells of a 96 well deep well plate. 200 μL/well of T0 culture is added to each internal standard/test compound well used to determine PQS control level. Wells containing only LB broth (blank wells) are also included in the plate.
The plate is sealed and incubated at 37° C. for 24 hours under shaking (˜700 rpm) using a microtiter shaker. At the end of the incubation period, 150 μL/well of the deep well plate culture are transferred in a new non-sterile plate, and 150 μL/well of methanol containing tetra-deuterated PQS (D4-PQS) and 2% acetic acid are added to each well. The plate is sealed, shaken at high speed for 5 minutes and centrifuged at 4,000 g for 40 minutes at room temperature. 100 μL/well of the supernatant is then transferred to glass vials (vials crimp 0.2 mL) and kept at 4° C. until LC-MS/MS analysis.
PQSs quantification is carried out by analyzing samples in discrete batches together with spiked standards and blank samples.
Calibration curves are constructed from PQS standards, and respective deuterated PQS is used as an Internal Standards (IS) to calculate the concentration of analytes in the sample and improve the precision of the assay. The back-calculated concentrations of the calibration standards from the calibration curve shall be within ±20% of the nominal values, the range of the analytical method is determined, and the lower and upper limit of quantification specified.
as §3, with “performed using an Agilent HP1100” for “performed using Agilent HP1100”
The MS/MS analysis is performed with an API4000 series mass spectrometer (AB Sciex™) operating in Multiple Reaction Monitoring (MRM) mode and equipped with a TIS ion source. The specific ions monitored are PQS (m/z 260→m/z 175) and D4-PQS (m/z 264→m/z 179). The computer systems used in this study to acquire and quantify data may be an Analyst™ v1.5.
PQS in the presence of different concentrations of test compound are expressed as percentage of inhibition of the basal level in control samples. Curve fitting and IC50 estimations are carried out using a four parameter logistic model using GraphPad Prism v.5 program.

Compound	IC50 [1] [µM]	IC50 [2] [µM]	IC50 [3] [µM]	IC50 [4] [µM]
O=C(CNc1nc2ccc(Cl)cc2[nH]1)Nc1ccc(Oc2cccnc2)cc1 [Compound 159, 2-((5-chloro-1H-benzo[d]imidazol-2-yl)amino)-N-(4-(pyridin-3-yloxy)phenyl)acetamide]	< 1	0.1 to 1	< 1	
N#Cc1ccc(NC(=O)COc2nc3ccc([N+](=O)[O-])cc3[nH]2)cc1 [Compound 149, N-(4-cyanophenyl)-2-((6-nitro-1H-benzo[d]imidazol-2-yl)oxy)acetamide]		1 to 10		> 10
O=C(CSc1nc2cc(Cl)ccc2[nH]1)Nc1ccc2c(c1)OCO2 [Compound 139]		1 to 10		> 10
COc1ccc(NC(=O)CSc2nc3c(Cl)cc(Cl)cc3[nH]2)cc1 [Compound 141]		1 to 10		> 10
N#Cc1ccc(NC(=O)CNc2nc3cc(Cl)ccc3s2)cc1 [Compound 72, 2-(5-Chlorobenzo[d]thiazol-2-ylamino)-N-(4-cyanophenyl)acetamide]		> 10		> 10
